Reference: patent publication US5639734A, “Disaccharide inflammation inhibitors and uses thereof” (priority 1994, dated 1997)
Entries after “also recorded” stand apart in the source; their conditions may differ.

Tests used:
[1] = test system: sialyl Lewis X (sLe^x) ligands, HL-60 cells; conditions: background; cited from earlier work
[2] = test system: O-linked glycoprotein synthesis; conditions: background; cited from earlier work
[3] = test system: F9 cells; experiment: Uptake of disaccharides by F9 cells, fluorescence assay; assay type: in vitro ADME, mouse; conditions: Table I, control value without glycoside (1.0) subtracted
[4] = test system: basic fibroblast growth factor; conditions: background; cited from earlier work
[5] = test system: Chinese hamster ovary cells; experiment: Uptake of glycosides by Chinese hamster ovary cells, fluorescence assay
Procedure: Confluent monolayers of Chinese hamster ovary cells were incubated with the indicated concentrations of Xylβ-0-2-naphthol at 37° C. for 30 minutes. The amount of glycoside taken up was determined by fluorescence assay.
The various glycosides were added (100 μM) to confluent Chinese hamster ovary cell monolayers and at the times indicated, the amount of glycoside taken up was quantitated by fluorescence assay. Filled circles: Xylβ-0-2-naphthol; filled square: Galβ-0-2-naphthol; unfilled triangle: Galβ1→4Xylβ-0-2-naphthol; filled triangle: Galβ1 →3Galβ0-2-naphthol.
Compounds were dissolved in DMSO and added to growth medium such that the final concentration of vehicle was 0.5% (v/v). Confluent cells were incubated with supplemented growth medium at 37° C. for various times. The cultures were placed on ice, the medium was aspirated and the cells were washed three times with cold PBS containing 1 mg/ml of bovine serum albumin. Cells were solubilized in a small volume of 0.1M NaOH and the extracts were neutralized with one mole equivalent of acetic acid. After centrifuging the samples, the supernatants were applied to Sep-Pak Plus C18 cartridges (Waters Associates) and washed with water (10 ml) and 20% (v/v) methanol in water (5 ml). Bound material was eluted with 5 ml of 40% (v/v) methanol in water and concentrated to dryness. The residue was dissolved in methanol and its fluoresence was measured (SLM-Aminco Instruments). The excitation and emission wavelengths for 2-naphthol derivatives were 293 nm and 395 nm, respectively. Phenanthrol derivatives were excited at 310 nm and the emission was measured at 365 nm.
Animal cells take up β-D-xylosides and prime glycosaminoglycan chains with great efficiency. For priming to occur, the glycoside must pass though the plasma membrane and enter the Golgi where the glycosyltransferases reside. […] Xylβ-0-2-naphthol has three hydroxyl groups, whereas Gal-0-2-naphtholhas four.

[6] = test system: pgsA-745 cells (xylosyltransferase deficient Chinese hamster ovary cells); experiment: Priming of [35S]glycosaminoglycan chains in xylosyltransferase-deficient CHO mutant pgsA-745 cells; assay type: cell-based; conditions: FIG. 3; 5 hours at 37° C.; up to 500 μM
Procedure: Various compounds at the indicated concentrations were provided to confluent Chinese hamster ovary cells in a 96 well plate. Glycosaminoglycan synthesis was measured by autoradiography of [^35 S]-glycosaminoglycan collected on a postively charged nylon membrane. 1: Xylβ-0-2-naphthol; 2: Xylβ1→6Gal-0-2-naphthol; 3: Xylβ1→6Gal(Me)-0-2-naphthol; 4: Xylβ1→6Gal(Me)2 -0-2-naphthol; 5: Xylβ1→6Gal(Me)3 -0-2-naphthol; 6: Xyl(Ac)3 β-0-2-naphthol; 7:Xyl(Ac)3 β1→6Gal(Ac)3 -0-2-naphthol.
Priming of glycosaminoglycan chains was measured in pgsA-745 cells deficient in xylosyltransfersase. The cells were grown to confluence in 96-well microtiter plates (Falcon). Fresh medium (0.2 ml) containing 50 μCi/ml of H2^35 SO4 (25-40 Ci/mg) and the test compounds were added to the wells. The top row of wells contained […] of glycoside and each subsequent row contained a serial dilution (1:3^n, v/v). Cells were incubated for 5 hours at 37° C. and solubilized by adding 20 μl of 0.5M NaOH. The individual wells were adjusted to 0.2% (w/v) Zwittergent 3-12, 25 μg/ml chondroitin sulfate, 0.2M acetic acid and 10 mM Na2 SO4. The samples were transferred to a GeneScreen Plus membrane (Dupont-NEN) placed on top of a piece of 1Chr paper on a vacuum Minifold (Schleicher & Schuell). A wash solution of 0.2% (w/v) Zwittergent 3-12, 0.2M acetic acid and 10 mM Na2 SO4 (0.5 ml) was passed through each well. The membranes were removed from the Minifold, soaked for 5 minutes in 20 ml of wash solution, air-dried and exposed to RX X-ray film for 10-18 hours.
Therefore, uptake of the disaccharide was measured indirectly by the determining the incorporation of ^35 SO4 into glycosaminoglycan chains. To distinguish glycosaminoglycans produced on the glycoside from those made on endogenous proteoglycans, a Chinese hamster ovary cell mutant deficient in xylosyltransferase was made. […] [^35 S]glycosaminoglycan synthesis was measured by incubating mutant cells in a 96 well plate with glycoside derivatives at different doses. The cells and spent media were then transferred to a positively charged nylon membrane to detect newly made chains by autoradiography.

Structure (SMILES) | Expression of sLe^x ligands and adhesion to activated endothelial cells (in words) [1] | Effect on mucin oligosaccharide / O-linked glycoprotein synthesis (in words) [2] | Uptake [3] | Binding of primed heparan sulfate chains to basic fibroblast growth factor (in words) [4] | Uptake (in words) ([5]; CHO cells, 37° C., FIG. 1 and 2 (100 μM in FIG. 2)) | Time for uptake to reach a plateau ([5]; FIG. 2, 100 μM) | Uptake ([5]; relative to Xylβ-0-2-naphthol 1.0 unit) | Priming of glycosaminoglycan chains (in words) [6]
CC(=O)NC1C(OCc2ccccc2)OC(CO)C(O)C1O (centres unmarked) [GalNAcα-0-Bn, GalNAc-O-benzyl] | inhibits the expression of sialyl Lewis X (sLe^x) ligands and adhesion to activated endothelial cells | stimulates mucin oligosaccharide synthesis and inhibits O-linked glycoprotein synthesis |  |  |  |  |  | 
O[C@@H]1[C@@H](O)[C@H](Oc2ccc3ccccc3c2)OC[C@H]1O [Xylβ-0-2-naphthol] |  |  | 9.0 Arbitray units | will bind to basic fibroblast growth factor | diffuse more readily than hexosides; also recorded: occurs by diffusion; also recorded: depended on concentration and did not saturate | less than one minute | 1.0 unit of fluorescence | primed chains efficiently
